In patent publication US20180037568A1, “MODULATORS OF METHYL MODIFYING ENZYMES, COMPOSITIONS AND USES THEREOF” (Constellation Pharmaceuticals, Inc., priority 2015, published 2018):
Read-outs that look alike come from different tables or passages of the source.

Columns and labels:
[1] = Plasma-tissue distribution and glucuronide formation in BALB/C mice; format: in vivo; settings: mouse, male BALB/C mice, oral gavage 100 mg/kg, 1 hour after dosing
Method: 1 h after dosing a group of mice (3 mice/group) via oral gavage at 100 mg/kg of compound 21, blood is collected from the submandibular or saphenous vein (˜30 μL) and tissue is collected from the biceps femoris (both sides). After tissue preparation and homogenization, plasma and tissue samples are assayed for parent drug using LC/MS/MS methodologies with internal standard. The glucuronide metabolites (parent mass +176) are also monitored via LC/MS/MS and compared to the internal standard for quantitation.

[2] = In vitro metabolism, rat liver microsomes; format: in vitro ADME; settings: 10 μM compound, 0.7 mg protein/mL, read-out: intrinsic clearance
Method: (§1) The in vitro metabolism of compound 21 was evaluated by disappearance of compound in mouse, rat, dog and human liver microsomes at 10 μM compound concentration.
(§2) Data is expressed in μL/min/mg protein.

[3] = target: EZH2 (Homo sapiens, UniProt Q15910); test: EZH2 nuc BSA Brij 1.5 (IC50): rPRC2, biotinylated oligonucleosome substrate, 3H SAM FlashPlate; format: biochemical; settings: read-out: EZH2 nuc BSA Brij 1.5 (IC50); 2 nM EZH2, 0.2 μM biotinylated oligonucleosomes, 0.2 μM 3H SAM, 3.6 μM H3K27me3 peptide
EZH2, sequence (Q15910 whole entry): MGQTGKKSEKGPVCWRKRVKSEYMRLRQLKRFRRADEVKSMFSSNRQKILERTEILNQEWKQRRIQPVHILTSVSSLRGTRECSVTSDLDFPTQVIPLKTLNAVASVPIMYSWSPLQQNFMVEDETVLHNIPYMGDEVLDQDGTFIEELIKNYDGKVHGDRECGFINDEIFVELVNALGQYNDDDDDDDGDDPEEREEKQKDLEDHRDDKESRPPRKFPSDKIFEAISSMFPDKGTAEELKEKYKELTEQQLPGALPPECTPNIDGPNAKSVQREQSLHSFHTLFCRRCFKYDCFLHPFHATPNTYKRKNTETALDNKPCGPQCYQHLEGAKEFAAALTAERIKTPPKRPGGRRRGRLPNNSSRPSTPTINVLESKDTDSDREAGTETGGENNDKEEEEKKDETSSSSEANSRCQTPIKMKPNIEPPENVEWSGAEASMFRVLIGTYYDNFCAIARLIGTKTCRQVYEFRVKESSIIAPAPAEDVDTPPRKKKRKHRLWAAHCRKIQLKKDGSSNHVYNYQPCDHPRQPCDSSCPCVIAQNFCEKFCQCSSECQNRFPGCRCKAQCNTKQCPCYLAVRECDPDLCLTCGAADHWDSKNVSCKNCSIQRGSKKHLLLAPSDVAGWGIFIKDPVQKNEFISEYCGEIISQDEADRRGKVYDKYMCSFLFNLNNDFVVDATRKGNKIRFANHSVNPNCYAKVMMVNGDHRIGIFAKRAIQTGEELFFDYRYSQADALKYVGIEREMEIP
EZH2, sequence (O75530 whole entry partner): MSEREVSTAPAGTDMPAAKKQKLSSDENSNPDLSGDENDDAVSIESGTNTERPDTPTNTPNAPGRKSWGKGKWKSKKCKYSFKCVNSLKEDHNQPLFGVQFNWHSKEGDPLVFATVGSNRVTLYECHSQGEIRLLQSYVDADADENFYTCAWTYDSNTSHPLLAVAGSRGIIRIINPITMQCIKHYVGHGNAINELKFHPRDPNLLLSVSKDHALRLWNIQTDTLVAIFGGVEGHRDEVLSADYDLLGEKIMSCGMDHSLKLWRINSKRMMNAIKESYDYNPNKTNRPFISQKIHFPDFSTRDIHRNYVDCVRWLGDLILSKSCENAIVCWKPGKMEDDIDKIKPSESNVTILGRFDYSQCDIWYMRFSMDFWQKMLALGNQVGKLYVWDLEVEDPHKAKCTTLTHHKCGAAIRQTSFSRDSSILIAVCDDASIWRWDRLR
EZH2, sequence (Q15022 whole entry partner): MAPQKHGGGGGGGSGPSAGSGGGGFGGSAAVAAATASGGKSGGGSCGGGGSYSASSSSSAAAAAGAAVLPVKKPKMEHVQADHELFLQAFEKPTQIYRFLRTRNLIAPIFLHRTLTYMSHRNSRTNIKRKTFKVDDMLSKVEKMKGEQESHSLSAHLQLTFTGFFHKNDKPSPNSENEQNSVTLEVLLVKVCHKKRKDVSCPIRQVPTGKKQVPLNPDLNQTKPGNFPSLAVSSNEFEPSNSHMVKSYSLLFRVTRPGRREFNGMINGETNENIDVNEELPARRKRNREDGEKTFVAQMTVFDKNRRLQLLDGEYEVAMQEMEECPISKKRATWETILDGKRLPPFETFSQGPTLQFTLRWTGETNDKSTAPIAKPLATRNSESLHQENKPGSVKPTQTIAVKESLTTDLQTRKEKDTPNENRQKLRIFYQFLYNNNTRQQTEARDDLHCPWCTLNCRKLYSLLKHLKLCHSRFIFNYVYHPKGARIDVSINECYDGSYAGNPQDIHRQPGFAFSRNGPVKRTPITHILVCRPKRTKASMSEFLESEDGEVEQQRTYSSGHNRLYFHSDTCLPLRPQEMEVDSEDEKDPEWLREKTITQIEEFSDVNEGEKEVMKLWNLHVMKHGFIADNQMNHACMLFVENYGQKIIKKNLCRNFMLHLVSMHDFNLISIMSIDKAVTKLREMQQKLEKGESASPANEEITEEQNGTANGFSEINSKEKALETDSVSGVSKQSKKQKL
How it was run: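 rPRC2 (2 nM EZH2) with 0.2 μM biotinylated oligonucleosomes, 0.2 μM 3H-SAM and 3.6 μM H3K27me3 peptide in pH 8.5 Tris with Brij-35 and BSA. Compounds, 80–0.16 μM in ten 2-fold steps, pre-incubated 20 min before a 60 min reaction. SAH/EDTA quench, streptavidin FlashPlate capture, scintillation count; IC50 from a 4-parameter fit.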

[4] = In vitro metabolism, dog liver microsomes; format: in vitro ADME; settings: 10 μM compound, 0.7 mg protein/mL, read-out: intrinsic clearance
Method: as §1, §2

[5] = tested on: H3K27me3 mark; test: H3K27me3 Alpha Hela Assay (AlphaLISA); format: cell-based; settings: Hela cells, 72 hrs; read-out: EZH2 Cell H3K27me3 Alpha HeLa (EC50 K27me3)
How it was run: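 HeLa cells at 1,000/well were treated with ten 3-fold compound doses for 72 h at 37 °C. After lysis and histone extraction, H3K27me3 was detected by AlphaLISA with anti-K27me3 acceptor beads, biotinylated anti-H3 (C-ter) antibody (3 nM final) and streptavidin donor beads (20 μg/mL final). Signals were normalized to DMSO and curve-fitted for EC50.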

COc1cc(C)[nH]c(=O)c1CNC(=O)c1c(C)n(C(C)C2CCN(C)C(C(F)(F)F)C2)c2ccccc12 (single isomer, unassigned) [Compound 21, N-((4-methoxy-6-methyl-2-oxo-1,2-dihydropyridin-3-yl)methyl)-2-methyl-1-(1-(1-methyl-2-(trifluoromethyl)piperidin-4-yl)ethyl)-1H-indole-3-carboxamide]
concentration at 1 h ([1]; muscle (biceps femoris), biceps femoris, read-out: Conc. in Muscle): 7240 ng/g | Kp at 1 h ([1]; muscle/plasma, read-out: Ratio Muscle/Plasma): 0.86 | concentration at 1 h ([1]; plasma, read-out: Conc. in Plasma): 8370 ng/mL | microsomal CLint at 10 μM [2]: 35 µL/min/mg | IC50 [3]: < 100 nM | microsomal CLint at 10 μM [4]: 35 µL/min/mg | EC50 [5]: < 400 nM
